According to patent publication US11130960B2, “Methods for conferring or enhancing herbicide resistance on plants and/or alga with protoporphyrinogen oxidase variants” (FARM HANNONG CO., LTD., priority 2014, dated 2021):

system: CyPPO2; experiment: Growth inhibition of transformed PPO-deficient E. coli BT3(ΔPPO) on LB agar medium; type: cell-based, Oscillatoria nigro-viridis PCC 7112; settings: 37° C., 16~20 hours
Text: To test herbicide resistance of CyPPO2, CyPPO4, CyPPO8 and CyPPO12 isolated in Example 1, PPO-deficient BT3 E. coli [hereinafter, referred to as BT3(ΔPPO)] was transformed with CyPPO2, CyPPO4, CyPPO8 or CyPPO12 gene, respectively and then cultured in the presence of herbicides to examine growth inhibition of the transformed E. coli. As a negative control, Arabidopsis thaliana-derived wild-type PPO (wild-type AtPPO1) was used, and wild-type AtPPO1 has sensitivity to PPO-based herbicides and its sequence information is available in GeneBank accession no. AX084732 (a nucleotide sequence of the gene is represented by SEQ ID NO: 10, and an amino acid sequence thereof is represented by SEQ ID NO: 9). As a positive control, Mutant AtPPO1 was used, in which amino acid replacements of Y426M (replacement of tyrosine by methionine at position 426) and S305L (replacement of serine by leucine at position 305) occur in the amino acid sequence of the wild-type AtPPO1 (an amino acid sequence is represented by SEQ ID NO: 11) (Li X, Volrath S L., N D B. G., Chilcott C E, Johnson M A, Ward E R, Law M D (2003) Development of protoporphyrinogen oxidase as an efficient selection marker for Agrobacterium tumefaciens-mediated transformation of maize. Plant physiology 133:736-747).
BT3(ΔPPO) strain was provided by Hokkaido University (Japan) and it is an E. coli strain which is deficient in hemG-type PPO and has Kanamycin resistance (Watanabe et al., (2001) Dual targeting of spinach protoporphyrinogen oxidase II to mitochondria and chloroplasts by alternative use of two in-frame […] codons. JBC 2047420481).
HVE-50 autoclave from Hirayama, HS2100A electronic scale from Hansung Instrument, CB-30V clean bench from Jeio Tech, JSI-200CL incubator from JSR, 1210 type UV-visible spectrophotometer from Thermo Fisher Scientific, MQ-200 photometer from Apogee, and Bio-Rad MyCycler as PCR machine were used. The autoclave was used under conditions of 121° C. and 15 minutes, and the incubator was used at 37° C. with lighting of 160˜200 μmol m^−2 s^−1 for a culture time of 14˜20 hours. LB medium (10 g/L of Bacto-Tryptone, 5 g/L of Yeast extract, 10 g/L of sodium chloride, 15 g/L of Bacto agar) and an antibiotic Chloramphenicol (Duchefa) were used.
To clone each of the CyPPO2, CyPPO4, CyPPO8 and CyPPO12 genes isolated and amplified in Example 1 into pACBB (its structure is shown in FIG. 2), 10 μl of a solution containing 4 μl of each PPO gene, […], 1 μl of 10× buffer A, 1 μl of 10× buffer B, 1 μl of ligase (RBC, 3 unit/μl) was prepared and allowed to react at 22° C. for 30 minutes. The reaction solution was added to 100 μl of DH5 alpha competent cells, and allowed to react on ice for 20 minutes and then left at 42° C. for 40 seconds. Thereafter, the cells were left on ice for 2 minutes, and then 1 ml of LB broth was added thereto, followed by incubation with shaking at 37° C. for 1 hour. The strains having each gene insert in the culture medium were harvested, and then cultured on LB agar medium containing chloramphenicol.
For seed culture of E. coli transformed with respective genes, single colonies thereof were cultured in 3 ml of LB broth containing chloramphenicol overnight, and each 100 μl thereof was sub-cultured in 3 ml of fresh LB broth until absorbance (OD600) reached 0.5˜1. They were diluted with LB broth to absorbance (OD600) of 0.5. 10-fold dilution of this diluted solution was performed with LB broth five times. Next, 10 μl of the diluted solution of the transformed E. coli culture was dropped on LB agar medium (petri dish) containing chloramphenicol and a variety of herbicide stocks at different concentrations (0˜400 μM). The LB agar plates were incubated at 37° C. At 16˜20 hours after culture, growth inhibition was examined with the naked eye. Further, growth inhibition of the strains cultured in a medium containing Tiafenacil was examined under light (lighting of 169 μmol m^−2s^−1) and dark conditions.

SMILES | concentration at which growth inhibition was hardly observed
O=C(O)c1cc(Oc2ccc(C(F)(F)F)cc2Cl)ccc1[N+](=O)[O-] [Acifluorfen] | 400 µM
C=CCOC(=O)C(C)(C)OC(=O)c1cc(-n2c(=O)cc(C(F)(F)F)n(C)c2=O)ccc1Cl [Butafenacil] | 25 µM
C#CCN1C(=O)COc2cc(F)c(N3C(=O)C4=C(CCCC4)C3=O)cc21 [Flumioxazin] | 25 µM
COC(=O)CSc1cc(/N=c2\sc(=O)n3n2CCCC3)c(F)cc1Cl [Fluthiacet-methyl] | 400 µM
CS(=O)(=O)NC(=O)c1cc(Oc2ccc(C(F)(F)F)cc2Cl)ccc1[N+](=O)[O-] [Fomesafen] | 400 µM
CC(C)Oc1cc(-n2nc(C(C)(C)C)oc2=O)c(Cl)cc1Cl [Oxadiazon] | 400 µM
CCOc1cc(Oc2ccc(C(F)(F)F)cc2Cl)ccc1[N+](=O)[O-] [Oxyfluorfen] | 400 µM
CC(C)=C1OC(=O)N(c2cc(OC3CCCC3)c(Cl)cc2F)C1=O [Pentoxazone] | 400 µM
C#CCN(C)c1c(C#N)cnn1-c1nn2c(c1Cl)CCCC2 [Pyraclonil] | 400 µM
CCOC(=O)COc1cc(-c2nn(C)c(OC(F)F)c2Cl)c(F)cc1Cl [Pyraflufen-ethyl] | 400 µM
CC(C)N(C)S(=O)(=O)NC(=O)c1cc(-n2c(=O)cc(C(F)(F)F)n(C)c2=O)c(F)cc1Cl [Saflufenacil] | 25 µM
Cc1nn(-c2cc(NS(C)(=O)=O)c(Cl)cc2Cl)c(=O)n1C(F)F [Sulfentrazone] | 400 µM
COC(=O)CCNC(=O)C(C)Sc1cc(-n2c(=O)cc(C(F)(F)F)n(C)c2=O)c(F)cc1Cl (stereo not shown) [Tiafenacil] | 25 µM
